Measured values reported in US6133311A, “Method for preventing or treating elevated blood lipid level-related diseases by administering natural phenolic compounds” (priority 1998, dated 2000).

How the values were obtained:
[1] = chemical analysis of blood of rabbits fed a high-cholesterol diet; format: in vivo, New Zealand White rabbits; conditions: for TG (triglyceride): Control 56 ± 38; for TC (total cholesterol): Control 1143 ± 260
Procedure: Effect of Tannin, Gallic acid or Ellagic acid in an Animal
(Step 1) Administration of tannin, gallic acid or ellagic acid to rabbits
(§1) 30 three-month-old male New Zealand White rabbits (Yeonam Horticulture and Animal Husbandry College, Korea), each weighing about 2.5 to 2.6 kg, were raised under a condition of temperature 20+2° C., relative humidity 55±5%, and photoperiod 12L/12D. The rabbits were divided into 5 groups and 5 groups of rabbits were fed with 5 different diets, i.e., RC4 diet (Oriental Yeast Co., Japan) containing 1% cholesterol (Control group, 1); 1% cholesterol plus 1 mg/kg Lovastatin® (Merck, U.S.A.) (Lovastatin® group, 2); 1% cholesterol plus 0.1% tannin (3); 1% cholesterol plus 0.1% gallic acid (4); and 1% cholesterol plus 0.1% ellagic acid (5), respectively. RC4 diet comprises 7.6% moisture, 22.8% crude protein, 2.8% crude fat, 8.8% crude ash, 14.4% crude cellulose and 43.6% soluble nitrogen-free substances. Tannin, gallic acid and ellagic acid were purchased from Sigma Chemical Co. (St. Louis, Mo.).
(§2) The rabbits were fed for 6 weeks while being allowed free access to the diets and water.
(Step 2) Chemical Analysis of Blood
After six weeks, the rabbits were anesthetized with an intramuscular injection of ketamine (50 mg/kg) in the femoral region and sacrificed. A blood sample was taken from the heart of each rabbit, allowed to stand for 2 hours and centrifuged at 3,000 rpm for 15 minutes and the supernatant serum was separated and stored in a freezer before use.
The chemical analysis of blood was carried out by employing a blood chemical analyzer (CIBA Corning 550 Express, USA) to determine the changes in GOT, GPT, γGTP, total cholesterol, HDL-cholesterol and triglyceride levels.

[2] = system: liver cells around the central vein; assay: fatty liver: proportion of abnormal fat-containing cells in the liver of rabbits; format: in vivo, New Zealand White rabbits; conditions: 6 weeks; for A: Proportion of abnormal fat-containing liver cells (grade): 1% cholesterol diet plus 0.1% compound (Lovastatin 1 mg/kg), mean of grades 1+ to 4+, Control 3.2 ± 0.3; for inhibition of the formation of fatty liver: 1% cholesterol diet
Procedure: as §1, §2
(Step 5) Prevention of Hepatic Diseases

[3] = acute oral toxicity in mice; format: in vivo, ICR mice; conditions: for toxicity: oral, mouse, single dose 5,000 mg/kg
Procedure: Toxicity of Orally Administered tannin, gallic acid or ellagic acid
36 seven-week-old, specific pathogen-free ICR […] female mice each weighing about 25 to 29 g and 18 male mice each weighing about 34 to 38 9, were kept under an environment of 22±1° C., 55±5% relative humidity and 12L/12D photoperiod. Fodder (Cheiljedang Co., mouse and rat fodder) and water were sterilized and fed to the mice.
Tannin, gallic acid or ellagic acid purchased from Aldrich-Sigma Chemical Co. (St. Louis, Mo., U.S.A) was dissolved in 0.5% Tween 80 to a concentration of 500 mg/ml, and the solution was orally administered to the mice in an amount of 0.2 ml per 20 g of mouse body weight. […] Further, on the 10th day, the mice were sacrificed and the internal organs were visually examined.

[4] = rabbits, 1% cholesterol diet plus 0.1% compound (Lovastatin 1 mg/kg), 6 weeks

| Molecule | effect on the liver function (adverse) ([1]; general statement) | γGTP ([1]; rabbits, 1% cholesterol diet plus 0.1% compound (Lovastatin 1 mg/kg), 6 weeks, Control 4.2 ± 0.9) [IU/l] | TG (triglyceride) [1, 4] [mg/dL] | GPT ([1]; rabbits, 1% cholesterol diet plus 0.1% compound (Lovastatin 1 mg/kg), 6 weeks, Control 65 ± 9) [IU/l] | GOT ([1]; rabbits, 1% cholesterol diet plus 0.1% compound (Lovastatin 1 mg/kg), 6 weeks, Control 77 ± 8) [IU/l] | TC (total cholesterol) [1, 4] [mg/dL] | lipid metabolism and liver function ([1]; rabbits, 6 weeks) | A: Proportion of abnormal fat-containing liver cells (grade) [2] | inhibition of the formation of fatty liver [2] | weight loss ([3]; oral 5,000 mg/kg, 10 day test period) | pathological abnormality at autopsy ([3]; oral 5,000 mg/kg, day 10) | survival ([3]; oral 5,000 mg/kg, day 10) | toxicity [3] | effect on the liver function (adverse) ([1]; rabbit, in vivo) |
| --- | --- | --- | --- | --- | --- | --- | --- | --- | --- | --- | --- | --- | --- | --- |
| O=C(O)c1cc(O)c(O)c(O)c1 [Gallic acid, gallic acid] | do not adversely affect on the liver function | 7.0 ± 2 | 27 ± 11 | 20 ± 10 | 60 ± 9 | 1150 ± 100 | can improve | 2.7 ± 0.4 | can significantly inhibit the formation of fatty liver | no weight loss | had not developed any pathological abnormality | All the mice were alive at day 10 | no toxicity |  |
| tannin |  |  | 25 ± 10 |  |  | 1120 ± 211 | can improve | 2.7 ± 0.4 | significantly inhibit the formation of fatty liver |  |  |  | no toxicity | do not adversely affect on the liver function |
